“Also recorded” adds a separate entry of the source.
Legend:
L5178Y target cells = assay: MLTC assay of cytotoxic lymphocyte (CTL) activity, L5178Y target cells; format: cell-based, mouse, DBA/2; conditions: for CTL activity (in words): with or without stimulator cells, any E/T ratio
Text: A mixed lymphocyte tumor culture (MLTC) immunoassay, used to determine the cytotoxic lymphocyte (CTL) activity employs lymphocytes from either immunized (sensitized) mice or DBA/2 tumor dormant state animals in various stages of the tumor dormant state (TDS). The assay employs L5178Y target cells labeled with ^51 Chromium and effector cells (sensitized lymphocytes) from the above-mentioned sources. Effector-target cell ratios will vary with different experimental conditions and may or may not include irradiated stimulator L5178Y cells. Results are expressed as % lysis of target cells based on ratio of cpm of test group over cpm of total release (maximum) both of which are corrected for spontaneous release of ^51 Cr. The assay can be performed as an 8 or 18 hour release assay.
Ten days later the resultant tumor nodule, about 1 cm in size, is surgically excised. If the excision was successful, no subcutaneous tumors develop at the site of implantation. […] These mice are considered to be in the tumor dormant state. […]
DBA/2 mice in the early stage of TDS, prior to challenge with viable L5178Y tumor cells, were used to measure the effect of Cpd. 2 on CTL activity. Cpd. 2, 0.1, 1.0, 10 or 100 μg/ml, or just buffer was added in 100 ul volumes to MLTC microculture wells containing washed spleen lymphocytes from DBA/2 mice, effector, and L5178Y target cells at varying ^E /T ratios. The MLTC reaction was performed in the presence or absence of irradiated L5178Y stimulator cells. […]

spleen lymphocytes = assay: In vitro lymphocyte stimulation assay, C57BL/6 spleen lymphocytes; format: cell-based, mouse
Description: The purpose of this assay is to challenge lymphocytes in microcultures with one or more polyclonal mitogens at concentrations that will induce mitogenesis within 72 hours of stimulation.
In the mouse model, spleens are removed from different strains of mice and the spleen cells are teased free and suspended in RPMI-1640 tissue culture medium at a concentration of usually […]. These cells are dispensed at a concentration of 5.0×10^5 cells per microculture well in a 96 well flat bottom 96 well tissue culture plate. All testing of the compounds of this invention or mitogens are done in replicates of 10. The cells are then treated with PHA, Con-A, specific antigens, or buffer only. If in vitro testing is done, varying concentrations of the compounds of this invention or buffer only are added to the cells as well. After treatment with the mitogens and/or compounds of this invention, the cells are incubated for 72 hours. The response of these cells to mitogens and/or the compounds of this invention is assessed using ^14 C-thymidine labeling on the fourth day at a concentration of 0.01 μCi/well. The labeled cells are harvested using a lymphocyte harvestor and placed onto fibrous paper discs. A scintillation cocktail is added to vials containing the discs and the results are obtained using a LKB-liquid scintillation counter (Model 1216/Rackbeta II). The data is expressed as a ratio of the cpm of the mitogen stimulated group to the control (nonmitogen) treated group=lymphocyte stimulation index (LSI).
The lymphocyte stimulation assay may be performed directly on spleen cells obtained from various strains of mice not treated with the compounds of this invention or on lymphocytes obtained from human […]. […] Alternatively, the mice may be treated in vivo with the compounds of this invention by intraperitoneal multi-dose schedules, followed by sacrifice and harvesting spleen lymphocytes. These cells are then tested for their response to polyclonal mitogens or specific antigens used to immunize the mice. In this system however, no additional compound is added to the in vitro lymphocyte stimulation assay system.
An in vitro lymphocyte stimulation assay is performed directly on normal spleen lymphocytes removed from five normal C57BL/6 mice, using concentrations of Cpd. […] Following three days of incubation the assay is completed.
An in vitro lymphocyte stimulation assay was performed using spleen lymphocytes from normal C57BL/6 mice. The lymphocytes were treated with either 1, 5, 10, 50 or 100 μg/well of Cpd. 1 or buffer.
Cpd. 2 was tested using normal spleen lymphocytes from C57BL/6 mice. A lymphocyte stimulation assay was conducted using either 1, 5, 10, 50, or 100 μg/well […] or just buffer.
Spleen cells from C57BL/6 mice were treated, in vitro, with the crystallizing reagents, succinic acid and succinimide. Since these compounds are spontaneously released from the molecular complex in solution at a molar ratio of 2 moles of Cpds. 1, 2, or 3 per mole of the crystalline reagent, these reagents were treated in the lymphocyte stimulation assay at proper molar concentrations.
The compound of example 3, Cpd. 3, was used to treat C57BL/6 spleen lymphocytes in vitro. The lymphocytes were treated with either 1, 5, 10, 50, or 100 μg/well of Cpd. 3 or just buffer and then a lymphocyte stimulation assay was performed.

Compound: 2-furylbutyrolactone:succinimide [Cpd. 2]
- % Lysis (L5178Y target cells; 0.1 μg/ml, E/T 12.5:1, pre-challenge TDS, with stimulator cells): 47.5%
- % Lysis (L5178Y target cells; 0.1 μg/ml, E/T 12.5:1, pre-challenge TDS, without stimulator cells): 16.5%
- % Lysis (L5178Y target cells; 0.1 μg/ml, E/T 25:1, pre-challenge TDS, with stimulator cells): 64.0%
- % Lysis (L5178Y target cells; 0.1 μg/ml, E/T 25:1, pre-challenge TDS, without stimulator cells): 29.5%
- % Lysis (L5178Y target cells; 0.1 μg/ml, E/T 50:1, pre-challenge TDS, with stimulator cells): 69.5%
- % Lysis (L5178Y target cells; 0.1 μg/ml, E/T 50:1, pre-challenge TDS, without stimulator cells): 43.5%
- % Lysis (L5178Y target cells; 0.1 μg/ml, E/T 100:1, pre-challenge TDS, with stimulator cells): 74.5%
- % Lysis (L5178Y target cells; 0.1 μg/ml, E/T 100:1, pre-challenge TDS, without stimulator cells): 48.0%
- % Lysis (L5178Y target cells; 1 μg/ml, E/T 12.5:1, pre-challenge TDS, with stimulator cells): 58.0%
- % Lysis (L5178Y target cells; 1 μg/ml, E/T 25:1, pre-challenge TDS, with stimulator cells): 69.5%
- % Lysis (L5178Y target cells; 1 μg/ml, E/T 50:1, pre-challenge TDS, with stimulator cells): 72.5%
- % Lysis (L5178Y target cells; 1 μg/ml, E/T 100:1, pre-challenge TDS, with stimulator cells): 75.5%
- % Lysis (L5178Y target cells; 10 μg/ml, E/T 12.5:1, pre-challenge TDS, with stimulator cells): 58.5%
- % Lysis (L5178Y target cells; 10 μg/ml, E/T 12.5:1, pre-challenge TDS, without stimulator cells): 26.5%
- % Lysis (L5178Y target cells; 10 μg/ml, E/T 25:1, pre-challenge TDS, with stimulator cells): 72.5%
- % Lysis (L5178Y target cells; 10 μg/ml, E/T 25:1, pre-challenge TDS, without stimulator cells): 40.0%
- % Lysis (L5178Y target cells; 10 μg/ml, E/T 50:1, pre-challenge TDS, with stimulator cells): 72.5%
- % Lysis (L5178Y target cells; 10 μg/ml, E/T 50:1, pre-challenge TDS, without stimulator cells): 56.5%
- % Lysis (L5178Y target cells; 10 μg/ml, E/T 100:1, pre-challenge TDS, with stimulator cells): 73.5%
- % Lysis (L5178Y target cells; 10 μg/ml, E/T 100:1, pre-challenge TDS, without stimulator cells): 61.5%
- % Lysis (L5178Y target cells; 100 μg/ml, E/T 12.5:1, pre-challenge TDS, with stimulator cells): 47.0%
- % Lysis (L5178Y target cells; 100 μg/ml, E/T 25:1, pre-challenge TDS, with stimulator cells): 65.0%
- % Lysis (L5178Y target cells; 100 μg/ml, E/T 50:1, pre-challenge TDS, with stimulator cells): 73.5%
- % Lysis (L5178Y target cells; 100 μg/ml, E/T 100:1, pre-challenge TDS, with stimulator cells): 78.5%
- CTL activity (in words) (L5178Y target cells; pre-challenge TDS): increase in CTL activity
- Lymphocyte Stimulation Index, Con-A (spleen lymphocytes; 1 μg/well): 147
- Lymphocyte Stimulation Index, Control (no mitogen) (spleen lymphocytes; 1 μg/well): .92
- Lymphocyte Stimulation Index, PHA (spleen lymphocytes; 1 μg/well): 25.4
- Lymphocyte Stimulation Index, Con-A (spleen lymphocytes; 5 μg/well): 148
- Lymphocyte Stimulation Index, Control (no mitogen) (spleen lymphocytes; 5 μg/well): 1.2
- Lymphocyte Stimulation Index, PHA (spleen lymphocytes; 5 μg/well): 29.8
- Lymphocyte Stimulation Index, Con-A (spleen lymphocytes; 10 μg/well): 164
- Lymphocyte Stimulation Index, Control (no mitogen) (spleen lymphocytes; 10 μg/well): 1.1
- Lymphocyte Stimulation Index, PHA (spleen lymphocytes; 10 μg/well): 38.8
- Lymphocyte Stimulation Index, Con-A (spleen lymphocytes; 50 μg/well): 218
- Lymphocyte Stimulation Index, Control (no mitogen) (spleen lymphocytes; 50 μg/well): .80
- Lymphocyte Stimulation Index, PHA (spleen lymphocytes; 50 μg/well): 45.8
- Lymphocyte Stimulation Index, Con-A (spleen lymphocytes; 100 μg/well): 144
- Lymphocyte Stimulation Index, Control (no mitogen) (spleen lymphocytes; 100 μg/well): .49
- Lymphocyte Stimulation Index, PHA (spleen lymphocytes; 100 μg/well): 3.83
- effect on Con-A response (in words) (spleen lymphocytes; in vitro, Con-A): the 200 μg/well dose had a stimulatory effect; also recorded: the 400 μg/well doses had an anti-proliferative effect

Compound: Cc1ccc(C2(O)C(=O)OC3C(O)COC32O)o1.Cc1ccc(C2(O)C(=O)OC3C(O)COC32O)o1.O=C1CCC(=O)O1 (stereo not shown) [Cpd. 1, 2-furylbutyrolactone:succinic anhydride]
- % Lysis (L5178Y target cells; 0.001 μg/ml, E/T 10:1, TDS, without stimulator cells): 3.9%
- % Lysis (L5178Y target cells; 0.01 μg/ml, E/T 10:1, TDS, without stimulator cells): 3.5%
- % Lysis (L5178Y target cells; 0.01 μg/ml, E/T 100:1, TDS, without stimulator cells): 26.0%
- % Lysis (L5178Y target cells; 0.1 μg/ml, E/T 10:1, TDS, without stimulator cells): 3.5%
- % Lysis (L5178Y target cells; 0.1 μg/ml, E/T 30:1, TDS, with stimulator cells): 51.0%
- % Lysis (L5178Y target cells; 0.1 μg/ml, E/T 100:1, TDS, with stimulator cells): 79.0%
- % Lysis (L5178Y target cells; 1.0 μg/ml, E/T 10:1, TDS, without stimulator cells): 4.6%
- % Lysis (L5178Y target cells; 1.0 μg/ml, E/T 30:1, TDS, with stimulator cells): 46.0%
- % Lysis (L5178Y target cells; 1.0 μg/ml, E/T 30:1, TDS, without stimulator cells): 20.0%
- % Lysis (L5178Y target cells; 10 μg/ml, E/T 6.25:1, TDS, without stimulator cells): .7%
- % Lysis (L5178Y target cells; 10 μg/ml, E/T 10:1, TDS, without stimulator cells): 4.6%
- % Lysis (L5178Y target cells; 10 μg/ml, E/T 12.5:1, TDS, without stimulator cells): 6.9%
- % Lysis (L5178Y target cells; 10 μg/ml, E/T 25:1, TDS, with stimulator cells): 72.0%
- % Lysis (L5178Y target cells; 10 μg/ml, E/T 25:1, TDS, without stimulator cells): 8.1%
- % Lysis (L5178Y target cells; 10 μg/ml, E/T 30:1, TDS, with stimulator cells): 42.0%
- % Lysis (L5178Y target cells; 100 μg/ml, E/T 6.25:1, TDS, without stimulator cells): 6.1%
- % Lysis (L5178Y target cells; 100 μg/ml, E/T 10:1, TDS, without stimulator cells): 8.6%
- % Lysis (L5178Y target cells; 100 μg/ml, E/T 100:1, TDS, without stimulator cells): 42.0%
- % Lysis (L5178Y target cells; E + D, E/T 10:1, TDS effectors, no stimulators): 9.0%
- enhancement of CTL activity (in words) (L5178Y target cells; L5178Y target, TDS effectors with stimulator cells): significant specific enhancement of CTL activity of effector cells in the presence of stimulator cells
- % Lysis (L5178Y target cells; N + S + D, E/T 30:1, normal spleen cells + stimulators): -9.7%
- % Lysis (L5178Y target cells; N + S + D, E/T 100:1, normal spleen cells + stimulators): -9.5%
- CTL activity (in words) (L5178Y target cells; TDS 10 days after challenge): significant increase in CTL activity
- Lymphocyte Stimulation Index, Control (no mitogen) (spleen lymphocytes; 5 μg/well): 1.8
- Lymphocyte Stimulation Index, Control (no mitogen) (spleen lymphocytes; 50 μg/well): .20
- Lymphocyte Stimulation Index, Control (no mitogen) (spleen lymphocytes; 100 μg/well): .20
- Lymphocyte Stimulation Index, Control (no mitogen) (spleen lymphocytes; .001 μg/well): 3.8
- Lymphocyte Stimulation Index, Control (no mitogen) (spleen lymphocytes; .01 μg/well): 3.2
- Lymphocyte Stimulation Index, Control (no mitogen) (spleen lymphocytes; .1 μg/well): 3.2

Reference: patent US4518611A, “2-Furylbutyrolactone modulation of the immune system in mammals” (priority 1983, dated 1985)
